According to PubChem BioAssay (NCI):
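Growth conditions: 96-well plates. Treatment: test compound, 48 hours, 5 concentrations. Analysis: linear interpolation between bracketing concentrations; unreached endpoints set to highest concentration. GI50 = concentration required for 50% inhibition of growth. TGI marks complete inhibition of growth.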 Where a SMILES comes first, the peptide text is derived from it. [ ]: non-standard residue; d: D form. The star is where a group is joined. ξ: configuration not given here. ξD = NC(CC(=O)O)C(=O)O; Boc = CC(C)(C)OC(=O)*; Aib = CC(C)(N)C(=O)O; OtBu = CC(C)(C)O*

How the values were obtained:
Test in all cases: NCI-60 cell line screen, 48 h
786-0 renal = tested on: 786-0 renal
A498 renal = tested on: A498 renal
A549 NSCLC = tested on: A549 NSCLC
ACHN renal = tested on: ACHN renal
BT-549 breast = tested on: BT-549 breast
CAKI-1 renal = tested on: CAKI-1 renal
CCRF-CEM leukemia = tested on: CCRF-CEM leukemia
COLO 205 colon = tested on: COLO 205 colon
DU-145 prostate = tested on: DU-145 prostate
EKVX NSCLC = tested on: EKVX NSCLC
HCT-116 colon = tested on: HCT-116 colon
HCT-15 colon = tested on: HCT-15 colon
HOP-62 NSCLC = tested on: HOP-62 NSCLC
HOP-92 NSCLC = tested on: HOP-92 NSCLC
HS 578T breast = tested on: HS 578T breast
HT29 colon = tested on: HT29 colon
IGROV1 ovarian = tested on: IGROV1 ovarian
K-562 leukemia = tested on: K-562 leukemia
KM12 colon = tested on: KM12 colon
LOX IMVI melanoma = tested on: LOX IMVI melanoma
M14 melanoma = tested on: M14 melanoma
MALME-3M melanoma = tested on: MALME-3M melanoma
MCF7 breast = tested on: MCF7 breast
MDA-MB-231 breast = tested on: MDA-MB-231 breast
MDA-MB-435 = tested on: MDA-MB-435
MOLT-4 leukemia = tested on: MOLT-4 leukemia
NCI-H226 lung = tested on: NCI-H226 lung
NCI-H23 lung = tested on: NCI-H23 lung
NCI-H460 lung = tested on: NCI-H460 lung
NCI-H522 lung = tested on: NCI-H522 lung
NCI/ADR-RES ovarian = tested on: NCI/ADR-RES ovarian
OVCAR-3 ovarian = tested on: OVCAR-3 ovarian
OVCAR-4 ovarian = tested on: OVCAR-4 ovarian
OVCAR-5 ovarian = tested on: OVCAR-5 ovarian
OVCAR-8 ovarian = tested on: OVCAR-8 ovarian
PC-3 prostate = tested on: PC-3 prostate
RPMI-8226 leukemia = tested on: RPMI-8226 leukemia
RXF 393 renal = tested on: RXF 393 renal
SF-268 CNS = tested on: SF-268 CNS
SF-295 CNS = tested on: SF-295 CNS
SF-539 CNS = tested on: SF-539 CNS
SK-MEL-2 melanoma = tested on: SK-MEL-2 melanoma
SK-MEL-28 melanoma = tested on: SK-MEL-28 melanoma
SK-MEL-5 melanoma = tested on: SK-MEL-5 melanoma
SK-OV-3 ovarian = tested on: SK-OV-3 ovarian
SNB-19 CNS = tested on: SNB-19 CNS
SNB-75 CNS = tested on: SNB-75 CNS
SW-620 colon = tested on: SW-620 colon
T-47D breast = tested on: T-47D breast
TK-10 renal = tested on: TK-10 renal
U251 CNS = tested on: U251 CNS
UACC-257 melanoma = tested on: UACC-257 melanoma
UACC-62 melanoma = tested on: UACC-62 melanoma
UO-31 renal = tested on: UO-31 renal
HCC-2998 colon = tested on: HCC-2998 colon
HL-60(TB) leukemia = tested on: HL-60(TB) leukemia
SN12C renal = tested on: SN12C renal

Question: Which TGI (786-0 renal) does the source give for `COC(=O)C(C)(C)NC(=O)C(C)(C)NC(=O)C(CC(=O)OC(C)(C)C)NC(=O)OC(C)(C)C` (centres undefined) (Boc-[ξD](OtBu)-[Aib]-[Aib]-OMe) here?
Answer: > 100 µM

Question: And the TGI (A498 renal)?
Answer: > 100 µM

Question: And the TGI (A549 NSCLC)?
Answer: > 100 µM

Question: What about the TGI (ACHN renal) of the same compound?
Answer: > 100 µM

Question: What about the TGI (BT-549 breast) of the same compound?
Answer: > 100 µM

Question: What about the TGI (CAKI-1 renal) of the same compound?
Answer: > 100 µM

Question: And the TGI (CCRF-CEM leukemia)?
Answer: > 100 µM

Question: And the TGI (COLO 205 colon)?
Answer: > 100 µM

Question: And the TGI (DU-145 prostate)?
Answer: > 100 µM

Question: And the TGI (EKVX NSCLC)?
Answer: > 100 µM

Question: What about the TGI (HCT-116 colon) of the same compound?
Answer: > 100 µM

Question: And the TGI (HCT-15 colon)?
Answer: > 100 µM

Question: What about the TGI (HOP-62 NSCLC) of the same compound?
Answer: > 100 µM

Question: And the TGI (HOP-92 NSCLC)?
Answer: > 100 µM

Question: And the TGI (HS 578T breast)?
Answer: > 100 µM

Question: What about the TGI (HT29 colon) of the same compound?
Answer: > 100 µM

Question: What about the TGI (IGROV1 ovarian) of the same compound?
Answer: > 100 µM

Question: What about the TGI (K-562 leukemia) of the same compound?
Answer: > 100 µM

Question: What about the TGI (KM12 colon) of the same compound?
Answer: > 100 µM

Question: And the TGI (LOX IMVI melanoma)?
Answer: > 100 µM

Question: And the TGI (M14 melanoma)?
Answer: > 100 µM

Question: And the TGI (MALME-3M melanoma)?
Answer: > 100 µM

Question: What about the TGI (MCF7 breast) of the same compound?
Answer: > 100 µM

Question: And the TGI (MDA-MB-231 breast)?
Answer: > 100 µM

Question: What about the TGI (MDA-MB-435) of the same compound?
Answer: > 100 µM

Question: What about the TGI (MOLT-4 leukemia) of the same compound?
Answer: > 100 µM

Question: And the TGI (NCI-H226 lung)?
Answer: > 100 µM

Question: What about the TGI (NCI-H23 lung) of the same compound?
Answer: > 100 µM

Question: And the TGI (NCI-H460 lung)?
Answer: > 100 µM

Question: What about the TGI (NCI-H522 lung) of the same compound?
Answer: > 100 µM

Question: What about the TGI (NCI/ADR-RES ovarian) of the same compound?
Answer: > 100 µM

Question: What about the TGI (OVCAR-3 ovarian) of the same compound?
Answer: > 100 µM

Question: What about the TGI (OVCAR-4 ovarian) of the same compound?
Answer: > 100 µM

Question: And the TGI (OVCAR-5 ovarian)?
Answer: > 100 µM

Question: What about the TGI (OVCAR-8 ovarian) of the same compound?
Answer: > 100 µM

Question: What about the TGI (PC-3 prostate) of the same compound?
Answer: > 100 µM

Question: And the TGI (RPMI-8226 leukemia)?
Answer: > 100 µM

Question: What about the TGI (RXF 393 renal) of the same compound?
Answer: > 100 µM

Question: What about the TGI (SF-268 CNS) of the same compound?
Answer: > 100 µM

Question: What about the TGI (SF-295 CNS) of the same compound?
Answer: > 100 µM

Question: And the TGI (SF-539 CNS)?
Answer: > 100 µM

Question: What about the TGI (SK-MEL-2 melanoma) of the same compound?
Answer: > 100 µM

Question: What about the TGI (SK-MEL-28 melanoma) of the same compound?
Answer: > 100 µM

Question: And the TGI (SK-MEL-5 melanoma)?
Answer: > 100 µM

Question: And the TGI (SK-OV-3 ovarian)?
Answer: > 100 µM

Question: What about the TGI (SNB-19 CNS) of the same compound?
Answer: > 100 µM

Question: And the TGI (SNB-75 CNS)?
Answer: > 100 µM

Question: What about the TGI (SW-620 colon) of the same compound?
Answer: > 100 µM

Question: And the TGI (T-47D breast)?
Answer: > 100 µM

Question: What about the TGI (TK-10 renal) of the same compound?
Answer: > 100 µM

Question: What about the TGI (U251 CNS) of the same compound?
Answer: > 100 µM

Question: And the TGI (UACC-257 melanoma)?
Answer: > 100 µM

Question: And the TGI (UACC-62 melanoma)?
Answer: > 100 µM

Question: What about the TGI (UO-31 renal) of the same compound?
Answer: > 100 µM

Question: Which results are given for `COc1ccc(-c2nc3c(-c4ccccc4)nc(-c4ccccc4)cn3c2-c2ccc(OC)cc2)cc1`?
Answer: GI50 (786-0 renal): 49.5 µM; TGI (786-0 renal): > 100 µM; GI50 (A498 renal): > 100 µM; TGI (A498 renal): > 100 µM; GI50 (A549 NSCLC): > 100 µM; TGI (A549 NSCLC): > 100 µM; GI50 (ACHN renal): > 100 µM; TGI (ACHN renal): > 100 µM; GI50 (BT-549 breast): > 100 µM; TGI (BT-549 breast): > 100 µM; GI50 (CAKI-1 renal): > 100 µM; TGI (CAKI-1 renal): > 100 µM; GI50 (COLO 205 colon): > 100 µM; TGI (COLO 205 colon): > 100 µM; GI50 (DU-145 prostate): > 100 µM; TGI (DU-145 prostate): > 100 µM; GI50 (EKVX NSCLC): > 100 µM; TGI (EKVX NSCLC): > 100 µM; GI50 (HCC-2998 colon): > 100 µM; TGI (HCC-2998 colon): > 100 µM; GI50 (HCT-116 colon): > 100 µM; TGI (HCT-116 colon): > 100 µM; GI50 (HCT-15 colon): > 100 µM; TGI (HCT-15 colon): > 100 µM; GI50 (HL-60(TB) leukemia): 3.28 µM; TGI (HL-60(TB) leukemia): 52.6 µM; GI50 (HOP-62 NSCLC): 40.6 µM; TGI (HOP-62 NSCLC): > 100 µM; GI50 (HOP-92 NSCLC): 54.6 µM; TGI (HOP-92 NSCLC): > 100 µM; GI50 (HS 578T breast): 30.6 µM; TGI (HS 578T breast): > 100 µM; GI50 (HT29 colon): > 100 µM; TGI (HT29 colon): > 100 µM; GI50 (K-562 leukemia): > 100 µM; TGI (K-562 leukemia): > 100 µM; GI50 (KM12 colon): > 100 µM; TGI (KM12 colon): > 100 µM; GI50 (LOX IMVI melanoma): > 100 µM; TGI (LOX IMVI melanoma): > 100 µM; GI50 (M14 melanoma): > 100 µM; TGI (M14 melanoma): > 100 µM; GI50 (MALME-3M melanoma): > 100 µM; TGI (MALME-3M melanoma): > 100 µM; GI50 (MCF7 breast): > 100 µM; TGI (MCF7 breast): > 100 µM; GI50 (MDA-MB-231 breast): 68.5 µM; TGI (MDA-MB-231 breast): > 100 µM; GI50 (MDA-MB-435): > 100 µM; TGI (MDA-MB-435): > 100 µM; GI50 (NCI-H23 lung): > 100 µM; TGI (NCI-H23 lung): > 100 µM; GI50 (NCI-H460 lung): > 100 µM; TGI (NCI-H460 lung): > 100 µM; GI50 (NCI/ADR-RES ovarian): > 100 µM; TGI (NCI/ADR-RES ovarian): > 100 µM; GI50 (OVCAR-3 ovarian): > 100 µM; TGI (OVCAR-3 ovarian): > 100 µM; GI50 (OVCAR-4 ovarian): > 100 µM; TGI (OVCAR-4 ovarian): > 100 µM; GI50 (OVCAR-5 ovarian): > 100 µM; TGI (OVCAR-5 ovarian): > 100 µM; GI50 (OVCAR-8 ovarian): > 100 µM; TGI (OVCAR-8 ovarian): > 100 µM; GI50 (PC-3 prostate): > 100 µM; TGI (PC-3 prostate): > 100 µM; GI50 (RPMI-8226 leukemia): > 100 µM; TGI (RPMI-8226 leukemia): > 100 µM; GI50 (RXF 393 renal): 62.7 µM; TGI (RXF 393 renal): > 100 µM; GI50 (SF-268 CNS): > 100 µM; TGI (SF-268 CNS): > 100 µM; GI50 (SF-295 CNS): > 100 µM; TGI (SF-295 CNS): > 100 µM; GI50 (SF-539 CNS): 88.2 µM; TGI (SF-539 CNS): > 100 µM; GI50 (SK-MEL-28 melanoma): > 100 µM; TGI (SK-MEL-28 melanoma): > 100 µM; GI50 (SK-MEL-5 melanoma): > 100 µM; TGI (SK-MEL-5 melanoma): > 100 µM; GI50 (SK-OV-3 ovarian): 82.5 µM; TGI (SK-OV-3 ovarian): > 100 µM; GI50 (SN12C renal): > 100 µM; TGI (SN12C renal): > 100 µM; GI50 (SNB-19 CNS): > 100 µM; TGI (SNB-19 CNS): > 100 µM; GI50 (SNB-75 CNS): 26.8 µM; TGI (SNB-75 CNS): > 100 µM; GI50 (SW-620 colon): > 100 µM; TGI (SW-620 colon): > 100 µM; GI50 (T-47D breast): > 100 µM; TGI (T-47D breast): > 100 µM; GI50 (TK-10 renal): > 100 µM; TGI (TK-10 renal): > 100 µM; GI50 (U251 CNS): > 100 µM; TGI (U251 CNS): > 100 µM; GI50 (UACC-257 melanoma): > 100 µM; TGI (UACC-257 melanoma): > 100 µM; GI50 (UACC-62 melanoma): 88.6 µM; TGI (UACC-62 melanoma): > 100 µM
